Data from the supplement of paper PMC10307832.

Experiments:
[1] = compound: CC1=C(C(=NN1)C)CC2=C(C3=C(S2)N(C(=O)N(C3=O)C)CC(C)C)C(=O)N4C[C@@H](CO4)O; experiment: relative viability (nuclei count vs DMSO), 5 days (fraction); higher = more cells survive
How it was run: (§1)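 Cells of lung cancer lines were placed in 1536-well plates and kept overnight at 37 °C. Pinning then delivered five library-drug doses (not always all listed), spaced by √10, onto plates anchored with vehicle, and the cells were left 5 days without changing medium. One step fixed, permeabilised and stained them with Hoechst, and MetaXpress counted nuclei in 4× images. Viability, as a median over plates, is treated-well nuclei divided by vehicle-well nuclei, with acceptance only at control CV below 25% and at least one doubling.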

IDH-C35 = compound: Cc1ccccc1C(C(=O)NC1CCCCC1)N(C(=O)Cn1ccnc1C)c1cccc(F)c1 [IDH-C35]; experiment: as above
How it was run: as §1

Cell Line	relative viability ([1]; 0.0025 µM)	relative viability ([1]; 0.007906 µM)	relative viability ([1]; 0.025 µM)	relative viability ([1]; 0.07906 µM)	relative viability ([1]; 0.25 µM)	relative viability (IDH-C35; 0.08 µM)	relative viability (IDH-C35; 0.253 µM)	relative viability (IDH-C35; 0.8 µM)	relative viability (IDH-C35; 2.53 µM)	relative viability (IDH-C35; 8 µM)
NCI-H460	1.02	1.08	0.955	0.968	1.06	1.01	0.99	1.01	0.957	0.94
NCI-H520	1.03	0.914	0.644	0.79	0.628	1.01	1.05	0.87	0.91	1
NCI-H522	0.933	1.12	0.735	0.64	0.653	1.02	1.07	0.931	0.884	0.99
NCI-H596	1.09	1.13	0.978	1.04	1.11	0.884	0.938	0.972	0.925	1.01
NCI-H647	1.03	1.1	0.932	0.915	0.934	1.03	0.94	0.972	0.936	0.949
NCI-H650	0.987	0.91	0.869	0.919	1.06	0.894	1.2	0.981		0.962
NCI-H661	0.948	0.997	0.956	0.946	0.964	0.994	0.971	0.978	0.983	0.91
NCI-H727	1.07	1	1	0.875	0.964	0.81	0.98	1.01	0.979	1.01
NCI-H838	0.992	0.979	0.876	0.84	0.856	1.07	0.935	0.978	1.01	0.981
NCI-H1299	1.01	1	0.952	1.01	1.03	1.04	0.952	1.01	0.991	1.01
NCI-H1355	1.08	1.03	0.994	0.993	0.952	0.978	0.971	0.961	0.915	0.944
NCI-H1395	0.962	0.841	0.713	0.795	0.719	0.942	0.866	0.929	0.877	0.882
NCI-H1437	1.05	0.981	0.953	0.996	0.991	1.04	1.02	0.993	0.995	0.959
NCI-H1563	1.06	1.06	0.97	1.07	0.973	0.972	0.974	1.01	0.981	0.957
NCI-H1623	1.02	0.899	1.01	1.01	0.955	0.969	0.975	0.95	1	1.04
NCI-H1648	1.01	0.971	0.992	0.624	0.678	0.756	0.758	0.953	0.761	0.942
NCI-H1650	0.986	1.07	1.11	1.14	1.21	1.01	0.986	0.928	0.923	0.839

Cell Line	relative viability ([1]; 0.0025 µM)	relative viability ([1]; 0.007906 µM)	relative viability ([1]; 0.025 µM)	relative viability ([1]; 0.07906 µM)	relative viability ([1]; 0.25 µM)	relative viability (IDH-C35; 0.08 µM)	relative viability (IDH-C35; 0.253 µM)	relative viability (IDH-C35; 0.8 µM)	relative viability (IDH-C35; 2.53 µM)	relative viability (IDH-C35; 8 µM)
NCI-H1651	0.962	1.08	0.986	0.963	0.993	0.939	0.947	0.921	1	0.959
NCI-H1666	1.09	0.97	1.01	0.983	1.02	1	0.956	0.965	1.06	1.04
NCI-H1703	1.03	0.895	0.917	0.895	0.897	0.96	1.02	0.95	0.901	0.955
NCI-H1734	1.01	1.16	1.03	0.889	0.962	1.06	1.04	1	0.879	0.995
NCI-H1755	1.03	1	1.03	0.989	1.03	1.05	0.961	0.968	1.03	1.01
NCI-H1792	0.933	0.773	0.751	0.744	0.736	0.832	0.862	0.974	0.969	1.13
NCI-H1793	0.94	0.995	1	0.886	0.686	0.961	0.874	0.844	0.859	0.994
NCI-H1915	1.04	1.03	0.993	0.991	1.03	0.993	0.975	1.01	0.952	0.913
NCI-H1944	1.04	1.1	0.982	0.933	0.944	1.01	1.07	0.927	0.941	0.976
NCI-H1975	1.07	0.997	0.873	0.988	1.02	0.968	1.01	0.986	1.05	0.966
NCI-H1993	1.05	0.91	0.963	0.843	0.884	0.843	0.955	0.891	1.02	0.955
NCI-H2009	1.07	1.08	0.963	1.09	1.09	1.03	1.03	1.01	0.988	0.946
NCI-H2023	1.03	1.09	0.934	0.976	1.03	0.981	1.08	0.959	0.981	0.994
NCI-H2085	0.992	0.954	0.939	0.981	0.793	1.01	1	0.957	1.09	0.969
NCI-H2087	1.05	1.13	0.951	0.92	1.26	1.2	1.07	0.945	0.898	0.931
NCI-H2126	1.05	1.01	1	0.935	1.06	1.01	1.02	0.965	0.937	0.92
NCI-H2170	0.973	1.02	0.966	0.906	0.965	0.971	0.948	1.02	0.867	0.983
